# Test results taken from publication PMC8472913 (Viruses, 2021).
# Where two headings read alike, the source gives them in different places.
# Experiments:
# [1] = tested on: HuNoV GI.1 replicon variants; experiment: Generation of drug-resistant HuNoV GI.1 replicon variants; type: cell-based, Human norovirus; details: for EC50: Norovirus
# [2] = biological target: GI.1 protease (Norovirus, UniProt Q83883); experiment: Cell-based FRET protease assay, GI.1 protease; parameters: species or system Human norovirus
# [3] = biological target: GII protease (Lordsdale virus, UniProt P54634); experiment: Cell-based FRET protease assay, GII protease; parameters: species or system norovirus
# [4] = biological target: GV protease (Norovirus, UniProt Q80J95); experiment: Cell-based FRET protease assay, GV protease
# [5] = biological target: mutated GI.1 proteases (A105V, I109V, A105V/I109V) (Norovirus, UniProt Q83883, A1205V); experiment: Cell-based FRET protease assay, mutated GI.1 proteases; parameters: species or system Human norovirus; details: versus WT
# [6] = biological target: mutated GI.1 proteases (A105V, I109V, A105V/I109V) (Norovirus, UniProt Q83883, A1205V/I1209V); experiment: as above; parameters: species or system Human norovirus; details: versus WT
# [7] = biological target: mutated GI.1 proteases (A105V, I109V, A105V/I109V) (Norovirus, UniProt Q83883, I1209V); experiment: as above; parameters: species or system Human norovirus; details: versus WT
# [8] = tested on: Murine norovirus (MNV, strain MNV 1.CW1); parameters: method as in earlier work; details: read-out: EC50 against MNV; cited from earlier work
# [9] = tested on: Murine norovirus (MNV, strain MNV 1.CW1); experiment: MNV-induced CPE reduction assay (MTS) in RAW 264.7 cells; type: cell-based; details: for selectivity index (SI): MNV, CC50/EC50
# [10] = tested on: Murine norovirus (MNV, strain MNV 1.CW1); experiment: MNV virus yield assay, viral RNA by RT-qPCR; type: cell-based; details: Norwalk virus, RAW264.7, RAW 264.7 cells
# [11] = Cytotoxicity assay (MTS) in RAW 264.7 cells; type: cell-based; details: mouse
# [12] = tested on: HuNoV GI.1 replicon; experiment: HuNoV GI.1 replicon assay in HGT cells (RT-qPCR); type: cell-based, Human norovirus
# [13] = tested on: HGT cells; experiment: Adverse effects on host cells of the HuNoV GI.1 replicon assay; type: cell-based; details: up to the highest tested concentration of 100 µM
# [14] = Water solubility; type: physicochemical
# [15] = Pharmacokinetic studies in mice; type: in vivo; details: CD-1 mice; for AUC(0-t) / Cmax / Tmax / bioavailability / half-life / AUC(0-inf) / MRT inf / clearance: male, mouse, serum; for AUC(0-inf): read-out: AUCINF_obs; for MRT inf: read-out: MRTINF_obs; for clearance: read-out: CL_obs
# [16] = tested on: HuNoV GI.1 replicon; experiment: HuNoV GI.1 replicon clearance assay; type: cell-based, Human norovirus; details: for reduction in HuNoV GI.1 RNA: 10 µM
# [17] = tested on: compound 4res MNV variant; experiment: Generation of drug-resistant MNV variants; type: cell-based, Murine norovirus; details: after 25 passages (6 months)
# [18] = selection pressure: 10 µM of rupintrivir
# [19] = selection pressure: 14 µM of rupintrivir
# [20] = selection pressure: DMSO control
# [21] = Norwalk virus, RAW264.7, read-out: MNV-EC50
# [22] = Norovirus, HuNoV replicon, read-out: HuNoV-EC50
# [23] = selection pressure: 6 µM of compound 4
# [24] = selection pressure: 10 µM of compound 4
# [25] = selection pressure: 16 µM of compound 4
structure (smiles),measurement,setting,value
"CCOC(=O)/C=C/[C@H](C[C@@H]1CCNC1=O)NC(=O)[C@@H](CC(=O)[C@@H](NC(=O)c1cc(C)on1)C(C)C)Cc1ccc(F)cc1 [rupintrivir, Rupintrivir, reference compound]",EC50,[1]; [18],9400 ± 500 nM
same,EC50,[1]; [19],15000 ± 3000 nM
same,EC50,[1]; [20],1000 ± 100 nM
same,Fold Change in EC50,[1]; [18],9.3
same,Fold Change in EC50,[1]; [19],15
same,Fold Change in EC50,"[1]; selection pressure: 14 µM of rupintrivir, listed as Rupintrivir",15.2
same,IC50,"[2]; FRET, HEK293T cells, WT protease, read-out: IC50, GI.1 protease",3000 nM
same,IC50,"[3]; FRET, HEK293T cells, WT protease, read-out: IC50, GII protease",12200 nM
same,IC50,[4],4600 nM
same,"shift in IC50 value, A105V mutation in GI.1 protease",[5],significant shift
same,"shift in IC50 value, A105V/I109V mutation in GI.1 protease",[6],significant shift
same,"reduction of GI.1 protease sensitivity, single I109V mutation",[7],did not result in a significant reduction
same,EC50,[8],13000 ± 2000 nM
CC(C)C(NC(=O)c1ccc2ccccc2n1)C(=O)N[C@@H](CC1CCCCC1)C(=O)N[C@H](C=O)C[C@@H]1CCNC1=O (stereo partly drawn) [10d],selectivity index (SI),[9],> 1000
same,EC50,[9]; [21],37 ± 16 nM
same,EC50,[10],30 ± 10 nM
same,CC50,[11],48000 ± 3000 nM
same,EC50,[12]; [22],12 ± 10 nM
same,fold more potent (EC50),[12]; versus the initial hit,about 100 fold
same,adverse effects on the host cells,[13],without adverse effects
same,IC50,[2],90 nM
same,"improvement in the FRET assay, GI protease",[2]; versus the initial hit,~ 300 fold
same,IC50,[3],120 nM
same,"improvement in the FRET assay, GII protease",[3]; versus the initial hit,~ 300 fold
same,IC50,[4],490 nM
same,"change in IC50 value, A105V/I109V mutation",[6]; GI.1 protease,1.6 fold
same,"shift in IC50 value, I109V mutation",[7]; GI.1 protease,2.5 fold
same,water solubility,[14],low water solubility
same,"bioavailability, in words",[15],good
same,"half-life (T1/2), in words",[15],long
same,"maximal concentration (Cmax), in words",[15],high
same,Vss_obs,[15]; i.v. (5 mg/kg),3.867 ± 0.758 L/kg
same,AUC(0-t),"[15]; ip, i.p. (20 mg/kg)",10800 ng·h/mL
same,Cmax,"[15]; ip, i.p. (20 mg/kg)",12700 ng/mL
same,Tmax,"[15]; ip, i.p. (20 mg/kg)",0.25 h
same,bioavailability,"[15]; ip, i.p. (20 mg/kg)",150%
same,half-life,"[15]; ip, i.p. (20 mg/kg)",4.26 ± 0.24 h
same,AUC(0-inf),"[15]; ip, i.p. (20 mg/kg)",10800 ng·h/mL
same,MRT inf,"[15]; ip, i.p. (20 mg/kg)",1.34 ± 0.29 h
same,AUC(0-t),"[15]; iv, i.v. (5 mg/kg)",1800 ± 63 ng·h/mL
same,half-life,"[15]; iv, i.v. (5 mg/kg)",5.64 ± 1.63 h
same,AUC(0-inf),"[15]; iv, i.v. (5 mg/kg)",1810 ± 67 ng·h/mL
same,clearance,"[15]; iv, i.v. (5 mg/kg)",46 ± 1.7 mL/min/kg
same,MRT inf,"[15]; iv, i.v. (5 mg/kg)",1.4 ± 0.23 h
same,AUC(0-t),"[15]; sc, s.c. (5 mg/kg)",1840 ± 717 ng·h/mL
same,Cmax,"[15]; sc, s.c. (5 mg/kg)",1570 ± 582 ng/mL
same,Tmax,"[15]; sc, s.c. (5 mg/kg)",0.42 ± 0.29 h
same,bioavailability,"[15]; sc, s.c. (5 mg/kg)",102%
same,half-life,"[15]; sc, s.c. (5 mg/kg)",6.02 ± 0.92 h
same,AUC(0-inf),"[15]; sc, s.c. (5 mg/kg)",1860 ± 718 ng·h/mL
same,MRT inf,"[15]; sc, s.c. (5 mg/kg)",1.7 ± 0.16 h
Cc1cc(C(=O)NC(C(=O)NC(CC2CCCCC2)C(=O)NC(C=O)CC2CCNC2=O)C(C)C)no1 (stereo not drawn) [10a],EC50,[9]; [21],3800 ± 970 nM
same,EC50,[12]; [22],240 ± 110 nM
O=C[C@H](C[C@@H]1CCNC1=O)NC(=O)[C@H](CC1CCCCC1)NC(=O)c1ccc2ccccc2n1 [compound 4],selectivity index (SI),[9],35.6
same,EC50,"[9]; Norwalk virus, RAW264.7, RAW 264.7 cells, MTS, read-out: EC50, MNV-induced CPE",~1000 nM
same,EC50,"[9]; RAW 264.7 cells, MTS, read-out: EC50, MNV-induced CPE",700 ± 200 nM
same,EC50,[10],1700 ± 600 nM
same,CC50,[11],25300 ± 6100 nM
same,EC50,"[12]; HGT cells, 72 h, replicon RNA relative to β actin, read-out: EC50, HuNoV GI.1 replicon",1200 ± 600 nM
same,adverse effects on the host cells,[13],no adverse effects
same,reduction in HuNoV GI.1 RNA,[16]; after three passages,3 log10
same,reduction in HuNoV GI.1 RNA,[16]; after two passages,2 log10
same,clearance of the HuNoV GI.1 replicon from cells,"[16]; two consecutive treatments with 10 µM, rebound with G418",could clear cells from the HuNoV GI.1 replicon completely
same,"shift in EC50, MNV compound 4res variant",[17],4.5 fold
same,EC50,[1]; [23],3800 nM
same,EC50,[1]; [24],4300 nM
same,EC50,[1]; [25],11500 ± 900 nM
same,EC50,[1]; [20],800 ± 300 nM
same,Fold Change in EC50,[1]; [23],4.5
same,Fold Change in EC50,[1]; [24],5.2
same,Fold Change in EC50,[1]; [25],13.8
same,IC50,[2],34000 nM
same,IC50,[3],40600 nM
same,IC50,[4],32500 nM
same,"shift in IC50 value, A105V mutation in GI.1 protease",[5],not
same,"shift in IC50 value, A105V/I109V mutation in GI.1 protease",[6],not
same,"reduction of GI.1 protease sensitivity, single I109V mutation",[7],did not result in a significant reduction
same,"area under the curve (AUC) value, in words",[15],high
same,"bioavailability, in words",[15],good
same,"half-life (T1/2), in words",[15],moderate
same,"maximal concentration (Cmax), in words",[15],high
same,Vss_obs,[15]; i.v. (5 mg/kg),1.498 ± 0.714 L/kg
same,AUC(0-t),"[15]; ip, i.p. (20 mg/kg)",14900 ng·h/mL
same,Cmax,"[15]; ip, i.p. (20 mg/kg)",14500 ng/mL
same,Tmax,"[15]; ip, i.p. (20 mg/kg)",0.25 h
same,bioavailability,"[15]; ip, i.p. (20 mg/kg)",72.1%
same,half-life,"[15]; ip, i.p. (20 mg/kg)",5.11 ± 1.07 h
same,AUC(0-inf),"[15]; ip, i.p. (20 mg/kg)",15000 ng·h/mL
same,MRT inf,"[15]; ip, i.p. (20 mg/kg)",1.4 ± 0.06 h
same,AUC(0-t),"[15]; iv, i.v. (5 mg/kg)",5160 ± 1320 ng·h/mL
same,half-life,"[15]; iv, i.v. (5 mg/kg)",5.5 ± 0.85 h
same,AUC(0-inf),"[15]; iv, i.v. (5 mg/kg)",5190 ± 1300 ng·h/mL
same,clearance,"[15]; iv, i.v. (5 mg/kg)",16.8 ± 4.4 mL/min/kg
same,MRT inf,"[15]; iv, i.v. (5 mg/kg)",1.44 ± 0.3 h
same,AUC(0-t),"[15]; sc, s.c. (5 mg/kg)",4060 ± 1140 ng·h/mL
same,Cmax,"[15]; sc, s.c. (5 mg/kg)",2200 ± 894 ng/mL
same,Tmax,"[15]; sc, s.c. (5 mg/kg)",0.58 ± 0.29 h
same,bioavailability,"[15]; sc, s.c. (5 mg/kg)",78.6%
same,half-life,"[15]; sc, s.c. (5 mg/kg)",5.63 ± 0.4 h
same,AUC(0-inf),"[15]; sc, s.c. (5 mg/kg)",4110 ± 1140 ng·h/mL
same,MRT inf,"[15]; sc, s.c. (5 mg/kg)",2.95 ± 0.53 h
CC(C)C(NC(=O)c1cc2ccccc2[nH]1)C(=O)NC(CC1CCCCC1)C(=O)NC(C=O)CC1CCNC1=O (stereo not drawn) [10b],EC50,[9]; [21],230 ± 110 nM
same,EC50,[12]; [22],16 ± 9 nM
CC(C)C(NC(=O)c1cc2ccccc2o1)C(=O)N[C@@H](CC1CCCCC1)C(=O)N[C@H](C=O)C[C@@H]1CCNC1=O (stereo partly drawn) [10c],EC50,[9]; [21],94 ± 14 nM
same,EC50,[12]; [22],16 ± 6 nM
